The values below are quoted from earlier work in article PMC6958422 (Pharmaceuticals, 2019).

The test system of data set [1] is A2BAR. Details: method as in PMID 31132418. The settings on record: rat CA1 hippocampus, cited from earlier work.
In data set [2] the target is T1, hA2B AR (Homo sapiens, UniProt P29275).
T1 construct: expressed in transfected cells; host or cells: CHO cells
T1 sequence (P29275 1-332): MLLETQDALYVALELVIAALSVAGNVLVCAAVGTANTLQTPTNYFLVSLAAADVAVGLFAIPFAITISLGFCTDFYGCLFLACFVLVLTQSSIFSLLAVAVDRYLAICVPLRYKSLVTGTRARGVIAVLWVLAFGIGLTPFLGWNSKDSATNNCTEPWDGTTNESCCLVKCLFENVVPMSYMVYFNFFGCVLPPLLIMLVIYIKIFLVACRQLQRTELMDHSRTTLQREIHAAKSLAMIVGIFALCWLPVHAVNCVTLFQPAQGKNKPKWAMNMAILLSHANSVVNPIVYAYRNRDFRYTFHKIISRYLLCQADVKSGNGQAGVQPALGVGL
The settings on record: at 1µM, in comparison with NECA (1µM = 100%); cited from earlier work.

For the compound `N#Cc1c(N)nc(SCc2ncc[nH]2)c(C#N)c1-c1ccc(OCC2CC2)cc1` [Compound P453, 2-{[(1H-imidazol-2-yl)methyl]thio}-6-amino-4-[4-(cyclopropylmethoxy)phenyl]pyridine-3,5-dicarbonitrile], in data set [1], the “Effect on PPF (paired pulse facilitation)” value is listed as “decreases PPF”. In addition, in data set [1] (two-minute oxygen and glucose deprivation insult), the “Effect on A1AR-mediated fEPSP inhibition during OGD” value is recorded as “delays A1AR-mediated fEPSP inhibition”. In addition, in data set [2], the “Efficacy hA2B (cAMP assays)” value is given as 70%.
